Reference: patent US5369112A, “Method of treating cataracts caused by active oxygen” (Mitsubishi Gas Chemical Company, Inc., priority 1991, dated 1994)
Like-named read-outs stand apart in the source and are kept apart here.

Tests used:
[1] = Hydroxy radical scavenging activity (H2O2-(Fe^2+-DTPA), DMPO spin trapping, ESR); assay type: biochemical; details: Example 3, Table 8; pH 7.3; read-out: .OH scavenging activity IC50
Description: Activity of PQQ esters to scavenge hydroxy radical (·OH) produced in the system of H2 O2 --(Fe^2+ -DTPA) was examined by spin trapping method [using 5,5-dimethyl-1-pyrroline-N-oxide (hereinafter referred to as "DMPO") as a spin trapping agent] where electron spin resonance (hereinafter referred to as "ESR") was used. DTPA means diethylenetriamine-pentaacetic acid.
H2 O2 +Fe^2 -DTPA complex→·OH+OH^-
The following reagents were successively put in a test tube and stirred after addition of H2 O2 6 to initiate the reaction and the reaction mixture was transferred to a quartz cell used for measurement of ESR.
Hydroxy radical scavenging activity of OPQ and esters thereof was examined in the same manner as in Example 3.

[2] = test system: Hydrocortisone-Induced Cataract of Hen's Eggs; experiment: Effect on hydrocortisone-induced cataract of hen's eggs; assay type: in vivo, white leghorn (hen's eggs); details: 1 μmole at 3, 10 and 20 h after hydrocortisone; lens at 48 h
Procedure: Fertilized eggs of white leghorn were incubated in an incubator at a temperature of 37° C. and 70% in humidity. The day on which the incubation was started was taken to be one day old. […] eggs of 15 day old were prepared and divided into 7 groups, each of which included 5 eggs (A-G). A small hole was bored through the eggshell above air chamber of the eggs of groups B-G and 0.25 μmole (as 0.2 ml solution) of hydrocortisone sodium succinate was administered into the air chamber through the hole and then, the hole was sealed with a cellophane tape. To The eggs of groups C-G was administered 1 μmole of following compounds after 3, 10 and 20 hours from administration of hydrocortisone sodium succinate. That is, 0.2 ml of a solution of PQQ·2Na in distilled water was administered to the eggs of group C, 0.2 ml of a suspension of PQQ trimethyl ester in 1% Tween 80 solution was administered to the eggs of group D, 0.2 ml of a suspension of triallyl ester in 1% Tween 80 solution was administered to the eggs of group E, 0.2 ml of a solution of OPQ in 10 mM NaCO3 solution was administered to the eggs of group F, and 0.2 ml of a solution of methyl OPQ in 10 mM NaCO3 solution was administered to the eggs of group G.
Crystal lens was taken out after 48 hours from administration of hydrocortisone sodium succinate and degree of cataract was judged by the criteria according to the Nishigori et al method (Nishigori et al, "Investigative Ophthalmology & Visual Science", Vol. 25, page 1051, 1984).
5 The whole nucleus was hazed in white.

[3] = test system: mice; experiment: Kidney Toxicity Determined by Blood Examination (1); assay type: in vivo; details: for Creatinine / Glucose / Urea nitrogen: mouse serum
Procedure: (§1) After lapse of one day from the administration, the mice were fasted (with feeding only water) and then after 18 hours, blood was collected and serum was obtained therefrom. Glucose, urea nitrogen and creatinine in the serum were examined by clinical examination reagent (trademark: FUJI DRYCHEMSLIDE manufactured by Fuji Photo Film Co., Ltd.).

[4] = Superoxide scavenging activity (hypoxanthine-xanthine oxidase, DMPO spin trapping, ESR); assay type: biochemical; details: Example 1, Table 6; pH 7.3; read-out: O2^- scavenging activity IC50
Description: Activity of PQQ esters to scavenge superoxide (O2^-) produced in the system of hypoxanthinexanthine oxidase was examined by spin trapping method [using 5,5-dimethyl-l-pyrroline-N-oxide (hereinafter referred to as "DMPO") as a spin trapping agent] where electron spin resonance (hereinafter referred to as "ESR") was used.
Hypoxanthine+2O2 →2O2^- +uric acid (xanthine oxidase)
The following reagents were successively put in a test tube and stirred after addition of the hypoxanthine 7 to initiate the reaction and the reaction mixture was transferred to a quartz cell used for measurement of ESR.
Superoxide scavenging activity of OPQ and esters thereof was examined in the same manner as in Example 1.

[5] = not told; for Membrane permeation constant: bovine, 960 min
Procedure: Permeability of various compounds through capsule of crystal bovine lens was examined in accordance with the method mentioned in "Crystal Lens and Biochemical Mechanism thereof" (pages 436-440) edited by Shuzo Iwata (Medical Aoi Publisher). Each compound dissolved in 10 mM HEPES buffer (containing 1% DMSO in the case of PQQ triesters) was put in an apparatus for measurement of membrane permeation constant and left to stand for 16 hours at 35° C. and then amount of the compound which migrated was measured by ultraviolet absorption (243 nm for PQQ·2Na and 255 nm for PQQ esters) to obtain membrane permeation constant.

[6] = test system: male mice SPF-ICR; experiment: Acute toxicity test (1), intraperitoneal; details: mouse, in vivo
Procedure: To male mice SPF-ICR five weeks old (supplied by Japan Charles River Co.) were intraperitoneally administered PQQ·2Na, PQQ trimethyl ester, PQQ triallyl ester, OPQ, 1-methylpropyl OPQ, 2-methylthioethyl OPQ and benzyl OPQ at dosages of 40, 80, 160 and 200 mg per kg of body weight of mouce, respectively and they were bred for 14 days at 25° C. One group consisted of 8 mice. For administration, PQQ·2Na and OPQ and esters thereof were dissolved in physiological saline and PQQ trimethyl ester and PQQ triallyl ester were suspended in 1% Tween 80-containing physiological saline, respectively.

[7] = test system: mice; details: mouse, in vivo, ip
Procedure: One group consisted of 8 mice. For administration, PQQ·2Na and OPQ and esters thereof were dissolved in physiological saline and PQQ trimethyl ester and PQQ triallyl ester were suspended in 1% Tween 80-containing physiological saline, respectively.
PQQ·2Na, PQQ trimethyl ester, PQQ triallyl ester and OPQ and esters thereof were intraperitoneally administered to mice and they were bred in the same manner as in the above acute toxicity test. Urine of the mice was taken every day and glucose concentration was measured using clinical examination reagent (trademark: […] 2 manufactured by Miles.Sankyo Co.).

[8] = Acute Toxicity Test (2), intraperitoneal; assay type: in vivo; details: mouse, in vivo, ip
Procedure: (§2) To male mice SPF-ICR five weeks old (supplied by Japan Charles River Co.) were intraperitoneally administered PQQ triallyl ester at dosages of 40, 80, 160, 200, 400 and 800 mg per kg of body weight of mouse, respectively and they were bred for 14 days at 25° C. One group consisted of 8 mice. For administration, PQQ triallyl ester was suspended in 1% Tween 80-containing physiological saline.

[9] = test system: male mice SPF-ICR; experiment: Acute Toxicity Test (2), intraperitoneal; assay type: in vivo; details: 8 mice per group, 14 days
Procedure: as §2

[10] = test system: mice; experiment: Kidney Toxicity Determined by Blood Examination (2); assay type: in vivo; details: for Creatinine / Glucose / Urea nitrogen: mouse serum
Procedure: Dosages were 150, 400 and 1000 mg per kg of body weight of mouse.
as §1, with “15” for “18”

Structure (SMILES): C=CCOC(=O)c1cc(C(=O)OCC=C)c2c(n1)C(=O)C(=O)c1cc(C(=O)OCC=C)[nH]c1-2 [PQQ triallyl ester]
- IC50 [1]: 42000 nM
- Judgement 1 (No haze was seen in crystal lens), eggs [2]: 2/5
- Judgement 2 (Slight opaque ring was seen in crystal lens), eggs [2]: 1/5
- Judgement 3 (Clear ring of white haze was seen in crystal lens), eggs [2]: 1/5
- Judgement 4 ~ 5 (white haze of pinhole size in nucleus ~ whole nucleus hazed in white), eggs [2]: 1/5
- contents of glucose, urea nitrogen and creatinine in serum ([3]; mice, summary of Table 3): nearly the same as those in the case of administration of no compounds
- Creatinine ([3]; 40 mg/kg): 0.3 ± 0.1 mg/dL
- Glucose ([3]; 40 mg/kg): 42 ± 6 mg/dL
- Urea nitrogen ([3]; 40 mg/kg): 11 ± 4 mg/dL
- Creatinine ([3]; 90 mg/kg): 0.2 ± 0.1 mg/dL
- Glucose ([3]; 90 mg/kg): 47 ± 15 mg/dL
- Urea nitrogen ([3]; 90 mg/kg): 12 ± 3 mg/dL
- Creatinine ([3]; 160 mg/kg): 0.1 ± 0.1 mg/dL
- Glucose ([3]; 160 mg/kg): 59 ± 16 mg/dL
- Urea nitrogen ([3]; 160 mg/kg): 10 ± 1 mg/dL
- Creatinine ([3]; 200 mg/kg): 0.1 ± 0.1 mg/dL
- Glucose ([3]; 200 mg/kg): 76 ± 6 mg/dL
- Urea nitrogen ([3]; 200 mg/kg): 9 ± 1 mg/dL
- kidney toxicity ([3]; mouse, in vivo): kidney toxicity was not seen
- IC50 [4]: 12.4 nM
- Membrane permeation constant [5]: 2.42 ± 0.60 10 ^-7 cm^2 · sec^-1
- mice died [6]: no mice died
- glucose in urine ([7]; 20 mg/kg): -
- glucose in urine ([7]; 40 mg/kg): -
- glucose in urine ([7]; 80 mg/kg): -
- glucose in urine ([7]; 160 mg/kg): -
- glucose in urine ([7]; 200 mg/kg): -
- glucose in urine ([7]; 400 mg/kg): -
- glucose in urine ([7]; 1000 mg/kg): -
- LD50 at 336 h [8]: ~500 mg/kg
- mice died ([9]; i.p. 200 mg/kg or less): No mice died
- mice died ([9]; i.p. 400 mg/kg): three mice died
- mice died ([9]; i.p. 800 mg/kg): eight mice all died

Structure (SMILES): COC(=O)c1cc(C(=O)OC)c2c(n1)C(=O)C(=O)c1cc(C(=O)OC)[nH]c1-2 [PQQ trimethyl ester]
- Judgement 1 (No haze was seen in crystal lens), eggs [2]: 1/5
- Judgement 3 (Clear ring of white haze was seen in crystal lens), eggs [2]: 1/5
- Judgement 4 ~ 5 (white haze of pinhole size in nucleus ~ whole nucleus hazed in white), eggs [2]: 3/5
- IC50 [4]: 18.5 nM
- Membrane permeation constant [5]: 1.41 ± 0.48 10 ^-7 cm^2 · sec^-1
- membrane permeation constant relative to that of PQQ.2Na [5]: about twice
- mice died [6]: no mice died
- glucose detected in urine [7]: no glucose was detected in urine
- glucose in urine ([7]; 20 mg/kg): -
- glucose in urine ([7]; 40 mg/kg): -
- glucose in urine ([7]; 80 mg/kg): -
- glucose in urine ([7]; 160 mg/kg): -
- glucose in urine ([7]; 200 mg/kg): -
- glucose in urine ([7]; 400 mg/kg): -
- glucose in urine ([7]; 1000 mg/kg): -
- Creatinine ([10]; 150 mg/kg): 0.85 ± 0.08 mg/dL
- Glucose ([10]; 150 mg/kg): 154 ± 23 mg/dL
- Urea nitrogen ([10]; 150 mg/kg): 23 ± 2 mg/dL
- Creatinine ([10]; 400 mg/kg): 0.73 ± 0.05 mg/dL
- Glucose ([10]; 400 mg/kg): 117 ± 21 mg/dL
- Urea nitrogen ([10]; 400 mg/kg): 20 ± 2 mg/dL
- Creatinine ([10]; 1000 mg/kg): 0.73 ± 0.05 mg/dL
- Glucose ([10]; 1000 mg/kg): 125 ± 17 mg/dL
- Urea nitrogen ([10]; 1000 mg/kg): 17 ± 4 mg/dL
- kidney toxicity ([10]; mouse, in vivo, 1000 mg/kg): No kidney toxicity was recognized
